# Data as given in ChEMBL document CHEMBL3997840, “Kinase-independent phosphoramidate S1P1 receptor agonist benzyl ether derivatives” (Bioorg Med Chem Lett, 2017).
# Experiments:
# Homo sapiens = organism: Homo sapiens; assay: Selectivity ratio of EC50 for human S1P3 receptor to EC50 for human S1P1 receptor
# Serum [1] = assay: Drug metabolism in human serum assessed as monophosphate formation by measuring parent compound half life at 3 mg by 31P NMR method; type: ADME, cell-free
# [2] = target: Sphingosine 1-phosphate receptor 3 (Homo sapiens, UniProt Q99500); assay: Agonist activity at human S1P3 receptor expressed in CHOK1 cell membranes by [35S]-GTPgammaS binding assay
# Sequence of Sphingosine 1-phosphate receptor 3 (Q99500 whole entry): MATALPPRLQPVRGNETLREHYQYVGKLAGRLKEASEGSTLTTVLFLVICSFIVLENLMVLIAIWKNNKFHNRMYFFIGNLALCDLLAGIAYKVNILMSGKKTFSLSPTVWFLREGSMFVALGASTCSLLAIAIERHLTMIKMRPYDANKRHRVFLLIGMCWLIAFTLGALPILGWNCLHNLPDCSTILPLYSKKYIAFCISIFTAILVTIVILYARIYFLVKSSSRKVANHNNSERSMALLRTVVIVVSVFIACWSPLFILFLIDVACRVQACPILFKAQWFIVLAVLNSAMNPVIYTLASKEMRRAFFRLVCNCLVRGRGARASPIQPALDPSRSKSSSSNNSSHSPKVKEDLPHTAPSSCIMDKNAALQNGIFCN
# [3] = Chemical stability in aqueous buffer at pH 1.5 at 3 mg measured every 12 mins over 13 hrs by 31P NMR method; type: physicochemical; conditions: pH 1.5, 13 h
# Serum [4] = assay: Drug metabolism in human serum assessed as monophosphate formation at 3 mg after 12 hrs by mass spectroscopic method; type: ADME, cell-free
# [5] = Drug metabolism assessed as carboxypeptidase Y (unknown origin)-mediated monophosphate formation at 3 mg measured every day over 2 weeks by mass spectroscopic method; type: ADME; conditions: human, 336 h
# [6] = Chemical stability in aqueous buffer at pH 8 at 3 mg measured every 12 mins over 13 hrs by 31P NMR method; type: physicochemical; conditions: pH 8, 13 h
# [7] = Drug metabolism in mouse J1 cell derived neurons assessed as monophosphate formation at 3 mg after 4 days by mass spectroscopic method; type: ADME, cell-based; conditions: j1 cell-derived neuron, 96 h
structure (smiles),measurement,setting,value
Cc1ccc(CCCC(=O)c2ccc(COC[C@@](C)(N)COP(=O)(O)O)cc2)cc1,Ratio EC50,Homo sapiens,29
Cc1ccc(CCCC(=O)c2ccc(COC[C@@](C)(N)COP(=O)(N[C@@H](C)C(=O)OC(C)C)Oc3ccccc3)cc2)cc1 (some centres undefined),t1/2,Serum [1],14 h
Cc1ccc(CCCC(=O)c2cc(C)c(COC[C@@](C)(N)COP(=O)(O)O)cc2C)cc1,Ratio EC50,Homo sapiens,> 3080
same,EC50,[2],> 20 µM
COC(=O)[C@H](C)NP(=O)(OC[C@](C)(N)COCc1ccc(C(=O)CCCc2ccc(C)cc2)cc1)Oc1ccccc1 (some centres undefined),Stability,[3],Stable
same,Drug metabolism,Serum [4],Metabolite_Detected
same,Drug metabolism,[5],Metabolite_Detected
same,Stability,[6],Stable
same,Drug metabolism,[7],Metabolite_Detected
same,t1/2,Serum [1],14 h
Cc1ccc(CCCC(=O)c2cc(C)c(COC[C@@](C)(N)COP(=O)(N[C@@H](C)C(=O)OC(C)C)Oc3ccccc3)cc2C)cc1 (some centres undefined),t1/2,Serum [1],14 h
COC(=O)[C@H](C)NP(=O)(OC[C@](C)(N)COCc1cc(C)c(C(=O)CCCc2ccc(C)cc2)cc1C)Oc1ccccc1 (some centres undefined),t1/2,Serum [1],14 h
Cc1ccc(CCCC(=O)c2ccc(COC[C@@](C)(N)COP(=O)(N[C@@H](C)C(=O)OCc3ccccc3)Oc3ccccc3)cc2)cc1 (some centres undefined),t1/2,Serum [1],14 h
Cc1ccc(CCCC(=O)c2cc(C)c(COC[C@@](C)(N)COP(=O)(N[C@@H](C)C(=O)OCc3ccccc3)Oc3ccccc3)cc2C)cc1 (some centres undefined),t1/2,Serum [1],14 h
